Like-named read-outs stand apart in the source and are kept apart here. No end group written: not given here.
Tests used:
[1] = system: EIAV (MA-1 strain) in equine dermal cell line ED; assay: EIAV infectivity, immunostaining of antigen-expressing cells at 40 h; format: cell-based, equine infectious anemia virus; settings: for effect on the EIAV virus titer: theta defensins
[2] = system: HIV (pNL4-3 strain) in HeLa 37 cells; format: cell-based; settings: for anti-viral activity against HIV, numbers of HIV antigen positive cells (qualitative): theta defensins preincubated 15-30 minutes with HIV, HeLa cells, 40 h; for anti-retroviral activity of carboxy-terminal peptides (qualitative): HIV, 8 μg/ml, 40 h (FIG. 3B), preliminary studies
herpes simplex 1 (HSV-1) = assay: HSV-1 plaque formation inhibition, virus preincubated with peptide; format: cell-based, herpes simplex virus 1
herpes simplex 2 (HSV-2) = assay: HSV-2 plaque formation inhibition, virus preincubated with peptide; format: cell-based, herpes simplex virus 2
vaccinia virus = assay: Vaccinia virus replication; format: cell-based; settings: similar concentrations
[3] = % helicity (circular dichroism); format: physicochemical; settings: for % helicity in Phos. Buffer: phosphate buffer; for % helicity in phosphate buffer + 40% TFE: phosphate buffer + 40% TFE (parenthetical value)
[4] = mice, lung instillation of 100 μg
[5] = Systemic toxicity in mice; settings: systemic dose of 5 mg/kg
cytomegalovirus (CMV) = assay: CMV plaque formation / cytopathology in primary human fibroblasts; format: cell-based; settings: for CMV plaque formation: virus preincubated 1 h at 37° C., MOI approx. 5, 14 days post infection
[6] = system: adenovirus, a non-enveloped virus; assay: Adenovirus infectivity; format: cell-based; settings: similar concentrations (6-8 μg/ml); data not shown
EIAV (MA-1) = assay: Time course of Ov-1 addition against EIAV, antigen immunostaining of monolayers; format: cell-based, equine infectious anemia virus; settings: 10 μg/ml
Protocol: Studies with EIAV investigating the mode of action of the Ov class antivirals indicate that the peptides are acting early within the viral life cycle, perhaps acting on the viral particle itself. Ten μg/ml of Ov-1 was added to virus stocks of MA-1 either before, at the time of infection or various times following infection. Virus and peptide was then removed from the media 48 h post infection and the infected cultures were maintained for an additional 5 days to allow spread of any virus that is present within the culture. Monolayers were then immunostained for EIAV antigen expression.

[7] = system: herpes viruses and retroviruses
[8] = system: primary human fibroblasts
[9] = mouse, in vivo, 5 mg/kg

GFCRCLCRRGVCRCICTR [RTD-1, rhesus monkey theta defensin]
effect on the EIAV virus titer [1]: no effect

GICRCICGRGICRCICGR [HTD-1, synthetic peptide specified from human pseudogene, human theta defensin 1]
effect on the EIAV virus titer [1]: no effect
enhancement of IC50 by circularization ([2]; oxidized, circularized versus oxidized form): about 10 fold
anti-viral activity against HIV, numbers of HIV antigen positive cells (qualitative) [2]: greatest anti-viral activity
anti-viral activity against HIV, numbers of HIV antigen positive cells (qualitative) ([2]; listed as human theta defensin-1): most effective

GVCRCLCRRGVCRCLCRR [RTD-3, rhesus monkey theta defensin]
anti-viral activity against HIV, numbers of HIV antigen positive cells (qualitative) [2]: greatest anti-viral activity
anti-viral activity against HIV, numbers of HIV antigen positive cells (qualitative) ([2]; listed as rhesus theta defensin-3): most effective

HIIKKYGPTILRIIRIIG-NH2 [Ov-6, 18 carboxyl-terminal amino acids of Ov-1]
anti-retroviral activity of carboxy-terminal peptides (qualitative) [2]: did not have appreciable anti-viral activity

IHIIKKYGPTILRIIRIIG-NH2 [Ov-5, carboxy-terminal 19-mer of Ov-1]
anti-retroviral activity of carboxy-terminal peptides (qualitative) [2]: have anti-retroviral activity

ISRLAGLLRKGGEKIGEKLKKIGQKIKNFFQKLVPQPEQ (listed as Mus musculus) [mCramp, a murine cathelicidin]
reduction of herpes simplex 1 replication (herpes simplex 1 (HSV-1)): approximately 75%
reduction of herpes simplex 2 replication (herpes simplex 2 (HSV-2)): approximately 75%
infectivity of EIAV (qualitative) [1]: consistently reduced the infectivity
infectivity of HIV (qualitative) [2]: consistently reduced the infectivity
inhibitory effect on vaccinia virus replication (vaccinia virus): no inhibitory effect

KIIHIIKKYGPTILRIIRIIG-NH2 [Ov-4, carboxy-terminal 21-mer of Ov-1]
anti-retroviral activity of carboxy-terminal peptides (qualitative) [2]: have anti-retroviral activity

KNLRRIIRKGIHIIKKYG [Ov-2 (G10)]
% helicity in Phos. Buffer [3]: 7.4%
% helicity in phosphate buffer + 40% TFE [3]: 50.4%

KNLRRIIRKIIHIIKKYG [Ov-2, KNLRRIIRKIIHIIKKYG]
inflammation, cytokine elevation, blood markers [4]: No imflammation, cytokine elevation or increase in blood markers was detected
adverse effects [5]: no adverse effects

KNLRRIIRKIIHIIKKYGPTILRIIRIIG-NH2 [Ov-1]
inhibition of HSV-1 plaque formation (herpes simplex 1 (HSV-1); 6 μg/ml peptide): 3-6 fold
inhibition of HSV-1 plaque formation (herpes simplex 1 (HSV-1); 18 μg/ml peptide): approximately 100 fold
inhibition of HSV-2 plaque formation (herpes simplex 2 (HSV-2); 6 μg/ml peptide): 3-6 fold
inhibition of HSV-2 plaque formation (herpes simplex 2 (HSV-2); 18 μg/ml peptide): approximately 100 fold
CMV plaque formation (cytomegalovirus (CMV); 5 μg/ml): Plaque formation and accompanying monolayer disintegration can be observed
CMV plaque formation (cytomegalovirus (CMV); 20 μg/ml): No plaque formation was detected
CMV plaque formation (qualitative) (cytomegalovirus (CMV); 14 days): reduced plaque formation
decrease of EIAV infectivity ([1]; 6-8 μg/ml peptide): greater than 100 fold
decrease of HIV infectivity ([2]; 6-8 μg/ml peptide): greater than 100 fold
effect on infectivity of adenovirus [6]: < 10 fold
outcome of culture (qualitative) (EIAV (MA-1); added 30 minutes or later following virus infection): resulted in infection and spread of the virus throughout the monolayer
effectiveness in inhibiting virus replication (EIAV (MA-1); added during preincubation or at the time of infection): 100%
% helicity in Phos. Buffer [3]: 43.9%
% helicity in phosphate buffer + 40% TFE [3]: 97.9%
effective LD50 for inhibiting herpes viruses and retroviruses [7]: approximately 3 μg/ml
effect on the monolayer of primary human fibroblasts [8]: little to no effect
adverse effects [9]: no adverse effects

KNLRRITRKIIHIIKKYG [Ov-2 (T7)]
% helicity in Phos. Buffer [3]: 8.0%
% helicity in phosphate buffer + 40% TFE [3]: 66.8%

LRRIIRKIIHIIKK-NH2 [Ov-3, LRRIIRKIIHIIKK-NH2]
adverse effects [5]: no adverse effects

Reference: patent publication US20040086535A1, “Novel antiviral acitivities of primate theta defensins and mammalian cathelicidins” (priority 2001, published 2004)
